In one assay the test system is P-P70S6K (T389). As to the kind of experiment: Cell based AlphaLISA assay, inhibition of P-P70S6K (T389) in MDA-MB-468 cells. The conditions noted are these: Homo sapiens, 4 h, 0.017-1,000 nM, two to four hours at 37° C., AlphaLisa SureFire Ultra, read-out: pIC50 for Inhibition of mTORC1 and mTORC2 Substrate Phosphorylation, p-P70S6K-(T389) (converted). In outline: (§1)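 mTORC1 and mTORC2 activity in cells tracked through AlphaLISA SureFire Ultra detection of the phosphoproteins after incubation and cell lysis; Alpha signal read in duplicate. IC50 from normalized concentration–response regression with control-based normalization.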
(In Alpha technology, singlet oxygen from a donor bead excites a nearby acceptor bead.)

The next assay deals with P-4E-BP1 (T37/46). As to the kind of experiment: Cell based AlphaLISA assay, inhibition of P-4E-BP1 (T37/46) in MDA-MB-468 cells. The conditions noted are these: Homo sapiens, 4 h, 0.017-1,000 nM, two to four hours at 37° C., AlphaLisa SureFire Ultra, read-out: pIC50 for Inhibition of mTORC1 and mTORC2 Substrate Phosphorylation, p-4E-BP1-(T37/46) (converted). In outline:
as §1

In the next assay the test system is P-Akt (S473). As to the kind of experiment: Cell based AlphaLISA assay, inhibition of P-Akt (S473) in MDA-MB-468 cells. To be noted: Homo sapiens, 4 h, 0.017-1,000 nM, two to four hours at 37° C., AlphaLisa SureFire Ultra, read-out: pIC50 for Inhibition of mTORC1 and mTORC2 Substrate Phosphorylation, p-AKT1/2/3-(S473) (converted). In outline:
as §1

This note sets out measurements from patent US12187746B2, “C26-linked rapamycin analogs as mTOR inhibitors” (Revolution Medicines, Inc., priority 2018, dated 2025).

On to `CO[C@H]1C[C@@H]2CC[C@@H](C)[C@@](O)(O2)C(=O)C(=O)N2CCCC[C@H]2C(=O)O[C@H]([C@H](C)C[C@@H]2CC[C@@H](O)[C@H](OC)C2)C[C@@H](O)[C@H](C)/C=C(\C)[C@@H](O)[C@@H](OC)C(=NOCC(=O)NCCOCCC(=O)NCc2cnc(N3CCN(C(=O)CCOCCN4CCN(c5ncc(C(=O)N6CCc7cc(Cn8nc(-c9ccc%10oc(N)nc%10c9)c9c(N)ncnc98)ccc7C6)cn5)CC4)CC3)nc2)[C@H](C)C[C@H](C)/C=C/C=C/C=C/1C` [Example 44], for which the results for the IC50 with P-P70S6K (T389), with P-4E-BP1 (T37/46) and in the assay on P-Akt (S473) were less than 1 nM, 3.16 to 31.6 nM and 31.6 to 1000 nM, respectively.

Take `CO[C@H]1C[C@@H]2CC[C@@H](C)[C@@](O)(O2)C(=O)C(=O)N2CCCC[C@H]2C(=O)O[C@H]([C@H](C)C[C@@H]2CC[C@@H](O)[C@H](OC)C2)C[C@@H](O)[C@H](C)/C=C(\C)[C@@H](O)[C@@H](OC)C(=NOCC(=O)NCCOCCOCCOCCOCCOCCOCCOCCOCCC(=O)NCCS(=O)(=O)c2ccc(C(=O)N3CCOc4ccc(-c5ccc(N)nc5)cc4C3)c(C)c2)[C@H](C)C[C@H](C)/C=C/C=C/C=C/1C` [Example 45]: the IC50 in the assay on P-P70S6K (T389) was 1 to 10 nM; in the assay with P-4E-BP1 (T37/46) it was 3.16 to 31.6 nM; in the assay on P-Akt (S473), greater than 1000 nM.

On to `CO[C@H]1C[C@@H]2CC[C@@H](C)[C@@](O)(O2)C(=O)C(=O)N2CCCC[C@H]2C(=O)O[C@H]([C@H](C)C[C@@H]2CC[C@@H](O)[C@H](OC)C2)C[C@@H](O)[C@H](C)/C=C(\C)[C@@H](O)[C@@H](OC)C(=NOCC(=O)NCCOCCOCCOCCOCCOCCOCCOCCOCCC(=O)NCCS(=O)(=O)c2ccc(C(=O)N3CCOc4ccc(-c5ccc(N)nc5)cc4C3)c(C)c2F)[C@H](C)C[C@H](C)/C=C/C=C/C=C/1C` [Example 46], for which the results for the IC50 in the assay with P-P70S6K (T389), in the assay with P-4E-BP1 (T37/46) and in the assay on P-Akt (S473) were 1 to 10 nM, 3.16 to 31.6 nM and greater than 1000 nM, respectively.

As for `CO[C@H]1C[C@@H]2CC[C@@H](C)[C@@](O)(O2)C(=O)C(=O)N2CCCC[C@H]2C(=O)O[C@H]([C@H](C)C[C@@H]2CC[C@@H](O)[C@H](OC)C2)C[C@@H](O)[C@H](C)/C=C(\C)[C@@H](O)[C@@H](OC)C(=NOC(C)(C)C(=O)NCCOCCOCCOCCOCCOCCOCCC(=O)N2CCc3cc(Cn4nc(-c5ccc6oc(N)nc6c5)c5c(N)ncnc54)ccc3C2)[C@H](C)C[C@H](C)/C=C/C=C/C=C/1C` [Example 48], the IC50 is 10 to 1000 nM in the assay on P-P70S6K (T389), 3.16 to 31.6 nM in the assay on P-4E-BP1 (T37/46) and greater than 1000 nM in the assay on P-Akt (S473).

For the molecule `CO[C@H]1C[C@@H]2CC[C@@H](C)[C@@](O)(O2)C(=O)C(=O)N2CCCC[C@H]2C(=O)O[C@H]([C@H](C)C[C@@H]2CC[C@@H](O)[C@H](OC)C2)C[C@@H](O)[C@H](C)/C=C(\C)[C@@H](O)[C@@H](OC)C(=NOCC(=O)NCc2cnc(N3CCN(c4ncc(C(=O)NCCOCCC(=O)N5CCc6cc(Cn7nc(-c8ccc9oc(N)nc9c8)c8c(N)ncnc87)ccc6C5)cn4)[C@H](CN(C)C)C3)nc2)[C@H](C)C[C@H](C)/C=C/C=C/C=C/1C` [Example 49], the IC50 was 1 to 10 nM in the assay with P-P70S6K (T389), 3.16 to 31.6 nM in the assay with P-4E-BP1 (T37/46) and greater than 1000 nM with P-Akt (S473).

Turning to `CO[C@H]1C[C@@H]2CC[C@@H](C)[C@@](O)(O2)C(=O)C(=O)N2CCCC[C@H]2C(=O)O[C@H]([C@H](C)C[C@@H]2CC[C@@H](O)[C@H](OC)C2)C[C@@H](O)[C@H](C)/C=C(\C)[C@@H](O)[C@@H](OC)C(=NOCC(=O)NCc2cnc(N3CCN(c4ncc(C(=O)NCCOCCC(=O)N5CCc6cc(Cn7nc(-c8ccc9oc(N)nc9c8)c8c(N)ncnc87)ccc6C5)c(N)n4)CC3)nc2)[C@H](C)C[C@H](C)/C=C/C=C/C=C/1C` [Example 50], the IC50 with P-P70S6K (T389) was 10 to 1000 nM; with P-4E-BP1 (T37/46) it was greater than 1000 nM; with P-Akt (S473), greater than 1000 nM.

With `CO[C@H]1C[C@@H]2CC[C@@H](C)[C@@](O)(O2)C(=O)C(=O)N2CCCC[C@H]2C(=O)O[C@H]([C@H](C)C[C@@H]2CC[C@@H](O)[C@H](OC)C2)C[C@@H](O)[C@H](C)/C=C(\C)[C@@H](O)[C@@H](OC)C(=NOCC(=O)NCc2cnc(N3CCN(c4ncc(C(=O)NCCOCCC(=O)NCCCCn5nc(-c6ccc7oc(N)nc7c6)c6c(N)ncnc65)c(N)n4)CC3)nc2)[C@H](C)C[C@H](C)/C=C/C=C/C=C/1C` [Example 51], the IC50 in the assay on P-P70S6K (T389) was 10 to 1000 nM; in the assay on P-4E-BP1 (T37/46) it was greater than 1000 nM; with P-Akt (S473), greater than 1000 nM.

Take `CO[C@H]1C[C@@H]2CC[C@@H](C)[C@@](O)(O2)C(=O)C(=O)N2CCCC[C@H]2C(=O)O[C@H]([C@H](C)C[C@@H]2CC[C@@H](O)[C@H](OC)C2)C[C@@H](O)[C@H](C)/C=C(\C)[C@@H](O)[C@@H](OC)C(=NOCC(=O)NCc2cnc(N3CCC(N4CCC(C(=O)NCCOCCC(=O)N5CCc6cc(Cn7nc(-c8ccc9oc(N)nc9c8)c8c(N)ncnc87)ccc6C5)CC4)CC3)nc2)[C@H](C)C[C@H](C)/C=C/C=C/C=C/1C` [Example 52]: the IC50 is 1 to 10 nM in the assay on P-P70S6K (T389), 3.16 to 31.6 nM in the assay with P-4E-BP1 (T37/46) and greater than 1000 nM in the assay on P-Akt (S473).

Turning to `CO[C@H]1C[C@@H]2CC[C@@H](C)[C@@](O)(O2)C(=O)C(=O)N2CCCC[C@H]2C(=O)O[C@H]([C@H](C)C[C@@H]2CC[C@@H](O)[C@H](OC)C2)C[C@@H](O)[C@H](C)/C=C(\C)[C@@H](O)[C@@H](OC)C(=NOCC(=O)NCc2cnc(N3CCN(C(=O)CCOCCN4CCN(c5ncc(C(=O)N6CCc7cc(Cn8nc(-c9ccc%10oc(N)nc%10c9)c9c(N)ncnc98)ccc7C6)cn5)CC4)[C@@H](C(=O)O)C3)nc2)[C@H](C)C[C@H](C)/C=C/C=C/C=C/1C` [Example 55], the IC50 in the assay on P-P70S6K (T389) is less than 1 nM; in the assay on P-4E-BP1 (T37/46), 3.16 to 31.6 nM; in the assay with P-Akt (S473), greater than 1000 nM.

As for `CO[C@H]1C[C@@H]2CC[C@@H](C)[C@@](O)(O2)C(=O)C(=O)N2CCCC[C@H]2C(=O)O[C@H]([C@H](C)C[C@@H]2CC[C@@H](O)[C@H](OC)C2)C[C@@H](O)[C@H](C)/C=C(\C)[C@@H](O)[C@@H](OC)C(=NOCC(=O)N2CCc3nc(N4CCN(C(=O)CCOCCN5CCN(c6ncc(C(=O)N7CCc8cc(Cn9nc(-c%10ccc%11oc(N)nc%11c%10)c%10c(N)ncnc%109)ccc8C7)cn6)CC5)CC4)ncc3C2)[C@H](C)C[C@H](C)/C=C/C=C/C=C/1C` [Example 57], the IC50 in the assay on P-P70S6K (T389) is less than 1 nM; in the assay on P-4E-BP1 (T37/46), 3.16 to 31.6 nM; in the assay with P-Akt (S473), greater than 1000 nM.

`CO[C@H]1C[C@@H]2CC[C@@H](C)[C@@](O)(O2)C(=O)C(=O)N2CCCC[C@H]2C(=O)O[C@H]([C@H](C)C[C@@H]2CC[C@@H](O)[C@H](OC)C2)C[C@@H](O)[C@H](C)/C=C(\C)[C@@H](O)[C@@H](OC)C(=NOCC(=O)NCc2cnc(N3CCN(CCOCCN4CCN(c5ncc(C(=O)N6CCc7cc(Cn8nc(-c9ccc%10oc(N)nc%10c9)c9c(N)ncnc98)ccc7C6)cn5)CC4)CC3)nc2)[C@H](C)C[C@H](C)/C=C/C=C/C=C/1C` [Example 59]: the IC50 with P-P70S6K (T389) was less than 1 nM; with P-4E-BP1 (T37/46), 3.16 to 31.6 nM; in the assay on P-Akt (S473) it was greater than 1000 nM.

On to `CO[C@H]1C[C@@H]2CC[C@@H](C)[C@@](O)(O2)C(=O)C(=O)N2CCCC[C@H]2C(=O)O[C@H]([C@H](C)C[C@@H]2CC[C@@H](O)[C@H](OC)C2)C[C@@H](O)[C@H](C)/C=C(\C)[C@@H](O)[C@@H](OC)C(=NOCC(=O)N2CCc3nc(N4CCN(CCOCCN5CCN(c6ncc(C(=O)N7CCc8cc(Cn9nc(-c%10ccc%11oc(N)nc%11c%10)c%10c(N)ncnc%109)ccc8C7)cn6)CC5)CC4)ncc3C2)[C@H](C)C[C@H](C)/C=C/C=C/C=C/1C` [Example 61], for which the values for the IC50 in the assay with P-P70S6K (T389), in the assay with P-4E-BP1 (T37/46) and with P-Akt (S473) were 1 to 10 nM, 3.16 to 31.6 nM and greater than 1000 nM, respectively.

On to `CO[C@H]1C[C@@H]2CC[C@@H](C)[C@@](O)(O2)C(=O)C(=O)N2CCCC[C@H]2C(=O)O[C@H]([C@H](C)C[C@@H]2CC[C@@H](O)[C@H](OC)C2)C[C@@H](O)[C@H](C)/C=C(\C)[C@@H](O)[C@@H](OC)C(=NOCC(=O)NCc2cnc(N3CCN(C(=O)CCOCCN4CCC(N5CCC(C(=O)N6CCc7cc(Cn8nc(-c9ccc%10oc(N)nc%10c9)c9c(N)ncnc98)ccc7C6)CC5)CC4)CC3)nc2)[C@H](C)C[C@H](C)/C=C/C=C/C=C/1C` [Example 63], for which the values for the IC50 with P-P70S6K (T389), with P-4E-BP1 (T37/46) and in the assay with P-Akt (S473) were less than 1 nM, 3.16 to 31.6 nM and greater than 1000 nM, respectively.

With `CO[C@H]1C[C@@H]2CC[C@@H](C)[C@@](O)(O2)C(=O)C(=O)N2CCCC[C@H]2C(=O)O[C@H]([C@H](C)C[C@@H]2CC[C@@H](O)[C@H](OC)C2)C[C@@H](O)[C@H](C)/C=C(\C)[C@@H](O)[C@@H](OC)C(=NOCC(=O)NCc2cnc(N3CCN(C(=O)CCCN4CCN(c5ncc(C(=O)N6CCc7cc(Cn8nc(-c9ccc%10oc(N)nc%10c9)c9c(N)ncnc98)ccc7C6)cn5)CC4)CC3)nc2)[C@H](C)C[C@H](C)/C=C/C=C/C=C/1C` [Example 65], the IC50 in the assay on P-P70S6K (T389) was 1 to 10 nM; in the assay with P-4E-BP1 (T37/46), 3.16 to 31.6 nM; in the assay with P-Akt (S473), greater than 1000 nM.

On to `CO[C@H]1C[C@@H]2CC[C@@H](C)[C@@](O)(O2)C(=O)C(=O)N2CCCC[C@H]2C(=O)O[C@H]([C@H](C)C[C@@H]2CC[C@@H](O)[C@H](OC)C2)C[C@@H](O)[C@H](C)/C=C(\C)[C@@H](O)[C@@H](OC)C(=NOCC(=O)NCc2cnc(N3CCN(C(=O)CCCN4CCN(c5ncc(C(=O)N6CCC(n7nc(-c8ccc9oc(N)nc9c8)c8c(N)ncnc87)CC6)cn5)CC4)CC3)nc2)[C@H](C)C[C@H](C)/C=C/C=C/C=C/1C` [Example 66], for which the IC50 in the assay with P-P70S6K (T389) is 1 to 10 nM; in the assay on P-4E-BP1 (T37/46), greater than 1000 nM; in the assay on P-Akt (S473), greater than 1000 nM.
